# Reference: ChEMBL document CHEMBL4304799, “Primaquine homodimers as potential antiplasmodial and anticancer agents” (Bioorg Med Chem Lett, 2019)
# The source made the active and inactive calls. The calls are words filed in the database; no cut-off is given here.
# What was measured:
# MCF7 = experiment: Antiproliferative activity against human MCF7 cells measured after 72 hrs by MTT assay; type: functional, cell-based; details: MCF7, 72 h
# HCT-116 = experiment: Antiproliferative activity against human HCT116 cells measured after 72 hrs by MTT assay; type: functional, cell-based; details: HCT-116, 72 h
# NCI-H460 = experiment: Antiproliferative activity against human H460 cells measured after 72 hrs by MTT assay; type: functional, cell-based; details: NCI-H460, 72 h
# HEK293 = experiment: Antiproliferative activity against human HEK293 cells measured after 72 hrs by MTT assay; type: cell-based; details: HEK293, 72 h
# Plasmodium berghei [1] = experiment: Antiplasmodial activity against liver stage luciferase expressing Plasmodium berghei sporozoites infected in human Huh7 cells preincubated with host cells for 1 hr followed by plasmodium infection; type: functional, organism-based; details: Huh-7
# Plasmodium berghei [2] = experiment: Antiplasmodial activity against liver stage luciferase expressing Plasmodium berghei sporozoites infected in human Huh7 cells preincubated with host cells for 1 hr followed by plasmodium infection at 1 and 10 uM; type: functional, organism-based
# Plasmodium falciparum [3] = experiment: Antiplasmodial activity against asexual chloroquine sensitive blood stage Plasmodium falciparum 3D7 measured as HRP2 levels after 3 days by ELISA; type: functional, organism-based; details: 3D7, 72 h
# Plasmodium falciparum [4] = experiment: Antiplasmodial activity against asexual chloroquine resistant blood stage Plasmodium falciparum Dd2 measured as HRP2 levels after 3 days by ELISA; type: functional, organism-based; details: Dd2, 72 h
# [5] = Selectivity index, ratio of IC50 for HEK293 cells to IC50 for human H460 cells; type: toxicity; details: HEK293 cells versus H460 cells, read-out: Ratio IC50
# [6] = Selectivity index, ratio of IC50 for HEK293 cells to IC50 for human MCF7 cells; type: toxicity; details: HEK293 cells versus MCF7 cells, read-out: Ratio IC50
# [7] = Selectivity index, ratio of IC50 for HEK293 cells to IC50 for human HCT116 cells; type: toxicity; details: HEK293 cells versus HCT116 cells, read-out: Ratio IC50
Structure (SMILES),IC50 (MCF7),IC50 (HCT-116),IC50 (NCI-H460),IC50 (HEK293),IC50 (Plasmodium berghei [1]),Activity (Plasmodium berghei [2]),IC50 (Plasmodium falciparum [3]),IC50 (Plasmodium falciparum [4]),selectivity ratio [5],selectivity ratio [6],selectivity ratio [7]
COc1cccc2c1C(=O)c1c(O)c3c(c(O)c1C2=O)C[C@@](O)(C(=O)CO)C[C@@H]3O[C@H]1C[C@H](N)[C@H](O)[C@H](C)O1 [DOXORUBICIN],0.01 µM,0.01 µM,0.003 µM,0.018 µM,–,–,–,–,–,–,–
COc1cc(NC(C)CCCNC(=O)/C=C(\C)C(=O)NCCCC(C)Nc2cc(OC)cc3cccnc23)c2ncccc2c1 (centres undefined),2.36 µM,4.31 µM,1.63 µM,10 µM,–,–,–,–,–,–,–
COc1cc(NC(C)CCCNC(=O)/C=C/C(=O)NCCCC(C)Nc2cc(OC)cc3cccnc23)c2ncccc2c1 (centres undefined),9.3 µM,≥ 100 µM,≥ 100 µM,≥ 100 µM,0.198 µM,Active,14.6 µM,> 27.7 µM,–,–,–
COc1cc(NC(C)CCCNC(=O)CCCCCCC(=O)NCCCC(C)Nc2cc(OC)cc3cccnc23)c2ncccc2c1 (centres undefined),1.85 µM,≥ 100 µM,≥ 100 µM,≥ 100 µM,–,Active,23.1 µM,12.7 µM,–,–,–
COc1cc(NC(C)CCCNC(=O)CCCCCC(=O)NCCCC(C)Nc2cc(OC)cc3cccnc23)c2ncccc2c1 (centres undefined),3.04 µM,26.1 µM,26.7 µM,94.9 µM,–,–,–,–,1.6 to 31,1.6 to 31,1.6 to 31
COc1cc(NC(C)CCCN)c2ncccc2c1 (centres undefined) [PRIMAQUINE PHOSPHATE],8.73 µM,14 µM,19.8 µM,11 µM,–,Active,1.3 µM,1.9 µM,–,–,–
COc1cc(NC(C)CCCNC(=O)/C=C\C(=O)NCCCC(C)Nc2cc(OC)cc3cccnc23)c2ncccc2c1 (centres undefined),3.14 µM,9.19 µM,14.1 µM,17.5 µM,0.358 µM,Active,–,–,1.6 to 31,1.6 to 31,1.6 to 31
COc1cc(NC(C)CCCNC(=O)CCCC(=O)NCCCC(C)Nc2cc(OC)cc3cccnc23)c2ncccc2c1 (centres undefined),3.37 µM,16.9 µM,10.3 µM,26.4 µM,–,Active,16.5 µM,> 27.7 µM,1.6 to 31,1.6 to 31,1.6 to 31
COc1cc(NC(C)CCCNC(=O)CCC(=O)NCCCC(C)Nc2cc(OC)cc3cccnc23)c2ncccc2c1 (centres undefined),2.82 µM,11.3 µM,18.5 µM,2.25 µM,0.726 µM,Active,17.2 µM,> 27.7 µM,–,–,–
COc1cc(NC(C)CCCNC(=O)CCCCC(=O)NCCCC(C)Nc2cc(OC)cc3cccnc23)c2ncccc2c1 (centres undefined),1.78 µM,13.7 µM,2.49 µM,≥ 100 µM,–,Active,> 27.7 µM,> 27.7 µM,7.3 to 56,7.3 to 56,7.3 to 56
